The values that follow come from ChEMBL document CHEMBL3098042, “New carbocyclic nucleoside analogues with a bicyclo[2.2.1]heptane fragment as sugar moiety; synthesis, X-ray crystallography and anticancer activity” (2014).

One experiment has as its system T47D. Put plainly: Growth inhibition of human T47D cells at 10^-5 M relative to control. Type of experiment: functional. To be noted: values are per cent of control.
In the next experiment the test system is MDA-MB-468. Put plainly: Growth inhibition of human MDA-MB-468 cells at 10^-5 M relative to control. Particulars: values are per cent of control. It is filed as functional.
Another experiment has as its system MCF7. Put plainly: Growth inhibition of human MCF7 cells at 10^-5 M relative to control. Type of experiment: functional. Particulars: values are per cent of control.
A short description of experiment [1]: Growth inhibition of human UO31 cells at 10^-5 M relative to control. Type of experiment: functional. Particulars: UO-31, values are per cent of control.
The next experiment has as its system PC-3. Put plainly: Growth inhibition of human PC3 cells at 10^-5 M relative to control. It is filed as functional. Particulars: values are per cent of control.
The nature of experiment [2]: Growth inhibition of human RXF393 cells at 10^-5 M relative to control. Type of experiment: functional. To be noted: RXF 393, values are per cent of control.
Experiment [3] can be described thus: Growth inhibition of human NCI-ADR-RES cells at 10^-5 M relative to control. To be noted: values are per cent of control. Type of experiment: functional.
A further experiment has as its system CAKI-1. Put plainly: Growth inhibition of human CAKI-1 cells at 10^-5 M relative to control. It is filed as functional. Particulars: values are per cent of control.
The nature of experiment [4]: Growth inhibition of human OVCAR5 cells at 10^-5 M relative to control. Particulars: OVCAR-5, values are per cent of control. Type of experiment: functional.
The next experiment has as its system IGROV-1. The experiment can be described thus: Growth inhibition of human IGROV1 cells at 10^-5 M relative to control. It is filed as functional. Particulars: values are per cent of control.
Another experiment concerns LOX IMVI. Put plainly: Growth inhibition of human LOXIMVI cells at 10^-5 M relative to control. It is filed as functional. To be noted: values are per cent of control.
The test system of another experiment is SK-MEL-5. Put plainly: Growth inhibition of human SK-MEL-5 cells at 10^-5 M relative to control. Type of experiment: functional. Particulars: values are per cent of control.
Another experiment relates to SNB-75. Put plainly: Growth inhibition of human SNB75 cells at 10^-5 M relative to control. It is filed as functional. To be noted: values are per cent of control.
Another experiment concerns HCT-116. Put plainly: Growth inhibition of human HCT116 cells at 10^-5 M relative to control. It is filed as functional. Particulars: values are per cent of control.
For a further experiment, the system named is HCT-15. The experiment can be described thus: Growth inhibition of human HCT15 cells at 10^-5 M relative to control. Type of experiment: functional. Particulars: values are per cent of control.
For a further experiment, the system named is NCI-H322M. The experiment can be described thus: Growth inhibition of human NCI-H322M cells at 10^-5 M relative to control. Particulars: values are per cent of control. It is filed as functional.
Another experiment deals with MOLT-4. The experiment can be described thus: Growth inhibition of human MOLT4 cells at 10^-5 M relative to control. Type of experiment: functional. To be noted: values are per cent of control.
The subject of the next experiment is SR. The experiment can be described thus: Growth inhibition of human SR cells at 10^-5 M relative to control. Type of experiment: functional. Particulars: values are per cent of control.
The next experiment has as its system K562. The experiment can be described thus: Growth inhibition of human K562 cells at 10^-5 M relative to control. It is filed as functional. Particulars: values are per cent of control.
The test system of a further experiment is HL-60(TB). The experiment can be described thus: Growth inhibition of human HL-60(TB) cells at 10^-5 M relative to control. Type of experiment: functional. Particulars: values are per cent of control.
A further experiment deals with CCRF-CEM. Put plainly: Growth inhibition of human CCRF-CEM cells at 10^-5 M relative to control. Type of experiment: functional. To be noted: values are per cent of control.
For another experiment, the system named is NCI-H522. Put plainly: Growth inhibition of human NCI-H522 cells at 10^-5 M relative to control. Type of experiment: functional. Particulars: values are per cent of control.
For the next experiment, the system named is NCI-H226. Put plainly: Growth of human NCI-H226 cells at 10^-5 M relative to control.

As to `OC[C@H]1[C@@H]2C[C@H](n3cnc4c(NCCc5ccccc5)ncnc43)[C@H]1C[C@@H]2Cl`, the growth, % of control at 10 µM in the experiment with T47D came to 86.8%; in the experiment on MDA-MB-468, 89.4%; in the experiment with MCF7, 89.9%; in experiment [1], 73.8%; in the experiment on PC-3 it was 89.1%; in [2], 87%. For the same compound, the growth, % of control at 10 µM was determined as 88.2% in experiment [3]; 96% in the experiment with CAKI-1; 104% in [4]; 105% in the experiment on IGROV-1; 92.7% in the experiment on LOX IMVI; 73.9% with SK-MEL-5. The growth, % of control at 10 µM in the experiment with SNB-75 was 106%; with HCT-116, 101%; with HCT-15, 81.7%; in the experiment on NCI-H322M, 99.5%; in the experiment on MOLT-4, 83.3%; in the experiment with SR, 84.1%. Further, the growth, % of control at 10 µM in the experiment with K562 is 91.1%; with HL-60(TB), 120%; with CCRF-CEM it was 87.6%.

For the compound `OC[C@H]1[C@@H]2C[C@H](n3cnc4c(NC5CCCC5)ncnc43)[C@H]1C[C@@H]2Cl`, the growth, % of control at 10 µM is 94.1% in the experiment with T47D; 102% in the experiment on MDA-MB-468; 97.2% with MCF7; 99.6% in [1]; 95.3% in the experiment with PC-3; 104% in [2]. Also, the growth, % of control at 10 µM in experiment [3] is 103%; with CAKI-1, 99%; in experiment [4], 98.8%; in the experiment on LOX IMVI it was 89.7%; in the experiment with SK-MEL-5, 95.7%; in the experiment with SNB-75, 88%. In addition, the growth, % of control at 10 µM stood at 99.8% in the experiment on HCT-116; 93.7% in the experiment on HCT-15; 101% in the experiment on NCI-H522; 87.1% with MOLT-4; 86.5% in the experiment with SR; 93.1% in the experiment on K562. For the same compound, the results for the growth, % of control at 10 µM in the experiment with HL-60(TB) and with CCRF-CEM were 118% and 83.7%, respectively.

With `CN1CCN(c2ncnc3c2ncn3[C@H]2C[C@H]3[C@H](CO)[C@@H]2C[C@@H]3Cl)CC1`, the growth, % of control at 10 µM with T47D is 100%; in the experiment with MDA-MB-468 it was 101%; with MCF7, 84%; in experiment [1] it was 78.5%; with PC-3, 96.2%; in experiment [2], 111%. Moreover, the growth, % of control at 10 µM in [3] amounted to 100%; in the experiment on CAKI-1, 98.4%; in experiment [4], 96.4%; in the experiment with IGROV-1 it was 92.7%; in the experiment on LOX IMVI, 98%; in the experiment on SK-MEL-5, 99.4%. Besides, the growth, % of control at 10 µM in the experiment on SNB-75 turned out to be 107%; with HCT-116 it was 101%; in the experiment with HCT-15 it was 97.7%; in the experiment on NCI-H322M it was 92.7%; with MOLT-4, 83.4%; in the experiment on SR, 81%. For the same compound, the growth, % of control at 10 µM in the experiment with K562 is 107%; in the experiment with HL-60(TB), 86%; in the experiment on CCRF-CEM, 90.5%; in the experiment on NCI-H226 it was 102%.
